Results from patent US20020042393A1, “Excipient” (priority 1998, published 2002).

Tests used:
[1] = Apparent specific volume; type: physicochemical; conditions: excipient powder
Text: The whole of 10 g of trehalose powder was gently poured into a 100-ml measuring cylinder without making an impact (in this case, a cylinder having an outside diameter smaller than the inside diameter of the measuring cylinder was placed in the measuring cylinder, and it was slowly lifted after pouring the trehalose), and the apparent specific volume was expressed as a value obtained by dividing the read volume by the weight of the trehalose.

[2] = Dissolution test (13th revised Japanese Pharmacopoeia) of phenacetin granules; type: physicochemical
Experimental: The wet granules obtained in Example 6 were subjected to a dissolution test according to the dissolution test prescribed in the 13th revised Japanese Pharmacopoeia. The first liquid listed in the Japanese Pharmacopoeia was used as a test liquid, and the drug dissolution rate after 5 minutes was measured. The dissolution rate was calculated by taking the total amount of the drug contained in the granules as 100%. […] In the case of the trehaloses J and K, the dissolution rate after 5 minutes was as very high as 80%.
The granules prepared from each of lactose and Mannit P in Comparative Example 4 were subjected to a dissolution test according to the dissolution test prescribed in the 13th revised Japanese Pharmacopoeia. The first liquid listed in the Japanese Pharmacopoeia was used as a test liquid, and the drug dissolution rate after 5 minutes was measured. The drug dissolution rate was calculated by taking the total amount of the drug contained in the granules as 100%. […] In the case of lactose and Mannit P, the dissolution rate after 5 minutes was lower than in the case of trehaloses J and K.

[3] = Tablet hardness (Schleuniger hardness meter); type: physicochemical; conditions: for Tablet hardness at a compression pressure of 1000 kg/cm^2: phenacetin granules
[4] = Proportion of particles of 75 μm or more (Air Jet Sieve); type: physicochemical; conditions: excipient powder
Experimental: Five grams of trehalose was weighed onto a screen having a screen opening of 75 μm, and sifted with Air Jet Sieve (Model 200LS, mfd. by ALPINE) for 5 minutes, and the weight percentage of the weight of particles remaining on the screen based on the total weight of particles was calculated as the proportion of particles of 75 μm or more.

[5] = Angle of repose (Sugiwara's instrument); type: physicochemical; conditions: excipient powder
Text: Measured by means of a Sugiwara's instrument for measuring angle of repose (Yakuzaigaku 27, p. 260, 1965).

[6] = Wet granulation of phenacetin mixture with HPC binder solution: granule size and yield
[7] = Whiteness of powder (color analyzer); type: physicochemical; conditions: excipient powder
Experimental: (§1) For powder of trehalose or a pharmaceutical composition containing trehalose, values of L, a and b were measured with a color analyzer (TC-1800MKII, mfd. by Tokyo Denshoku Co., Ltd.), and the whiteness of the trehalose or pharmaceutical composition was calculated by the following equation: […]

[8] = Average particle size (sieving, 50% cumulative weight); type: physicochemical; conditions: excipient powder
Experimental: Five grams of trehalose was sifted through screens having screen openings of 500 μm, 300 μm and 250 μm, respectively, and then sifted with Air Jet Sieve by using screens having screen openings of 150 μm, 75 μm, 45 μm, 38 μm and 32 μm, respectively. The oversize particle weight percentage [%] was calculated for each screen, and the average particle size is expressed as a particle size corresponding to a cumulative weight percentage of 50%.

[9] = Change in whiteness of excipient mixed with drug at 40° C. and 75% RH (reactivity); type: physicochemical; conditions: listed as A
Experimental: as §1
One gram of each of the trehaloses obtained in Example 1 and 1 g of isoniazid were mixed and then allowed to stand in an atmosphere of 40° C. and 75% RH, and the change in whiteness of the trehalose was observed. On the other hand, 1 g of each of the trehaloses obtained in Example 1 and 1 g of aminophyline were mixed and then allowed to stand in an atmosphere of 40° C. and 75% RH, and the change in whiteness of the trehalose was observed.
One gram of 100-mesh lactose (available from De Melkindustrie Veghel bv) or 1 g of Mannit S (available from Tohwa Kasei Co., Ltd.) and 1 g of aminophyline were mixed and then allowed to stand in an atmosphere of 40° C. and 75% RH, and the change in whiteness of the lactose or Mannit S was observed.
As a starting material. […]

[10] = Consolidation of powder during storage; type: physicochemical; conditions: compared with trehaloses B and C
[11] = Disintegration time according to Japanese Pharmacopoeia; type: physicochemical
Experimental: The disintegration time of each of six molded products was measured by the use of ion-exchanged water according to the disintegration time measuring method prescribed in the 13th revised Japanese Pharmacopoeia, and the average of measured values was calculated.

[12] = Water content (Karl Fisher) of tablets before and after storage; type: physicochemical; conditions: tablets compressed at 500 kg/cm^2
Experimental: Determined as a value obtained by measuring about 0.1 g of trehalose and determining its water content by the Karl Fisher method.
One hundred grams of commercial “Trehaose” (available from Hayashibara Biochemical Laboratories, Inc.) was dissolved in water to a concentration of about 35 wt %, and the resulting solution was concentrated under reduced pressure with heating at 60° C. so as to have a concentration of about 75 wt %, and allowed to stand at room temperature to precipitate crystals, which were washed with 50 ml of water. Glucose was removed by carrying out the above purification procedure once or twice, to increase the trehalose purity. Trehalose A was obtained by carrying out the purification procedure twice to obtain crystals, drying the crystals, grinding the dried crystals with a bantam mill (number of revolutions 15,000 rpm, feed rate 5 kg/hr, and screen opening 2.0 mmφ), and then sifting the ground crystals through a […]. Trehalose B was obtained by carrying out the purification procedure once to obtain crystals, drying the crystals, grinding the dried crystals with a bantam mill (number of revolutions 10,000 rpm, feed rate 5 kg/hr, and screen opening 2.00 mmφ), and then sifting the ground crystals through a 350-μm screen. Trehalose C was obtained by carrying out the purification procedure once to obtain crystals, drying the crystals, grinding the dried crystals with a bantam mill (number of revolutions 8,000 rpm, feed rate 5 kg/hr, and screen opening 2.0 mmφ), and then sifting the ground crystals through a 350-μm screen. […] Each of trehaloses A to C was compressed into tablets at a compression pressure of 500 kg/cm^2, and the tablet hardness immediately after the compression and the tablet hardness after standing for 3 days in an atmosphere of 40° C. and 75% RH after the compression were compared.
“Trehaose” (available from Hayashibara Bioscience Laboratories Co., Ltd.) was purified once by the method described in Example 1 to obtain crystals, which were dried, ground with a bantam mill (number of revolutions 12,000 rpm, feed rate 5 kg/hr, and screen opening 2.0 mmφ) and then dried at 105° C. for 4 hours to obtain trehalose anhydrous crystals. These crystals were compressed into tablets at a compression pressure of 500 kg/cm^2, and the tablet hardnesses of the tablets were compared in the same manner as in Example 1.

[13] = phenacetin granules, binding solution 180 g
[14] = phenacetin granules, binding solution 240 g
[15] = Example 10: as Example 9 but molded at 60 kg/cm^2, listed as A
[16] = ascorbic acid tablets (Example 12), compression pressure 500 kg/cm^2
[17] = ascorbic acid tablets (Example 12), compression pressure 800 kg/cm^2
[18] = phenacetin 50/excipient 30/corn starch 10/microcrystalline cellulose 10, binding solution 100 g
[19] = phenacetin granules, binding solution 120 g
[20] = phenacetin granules, binding solution 160 g

## OC[C@H]1O[C@@H](O[C@H]2[C@H](O)[C@@H](O)C(O)O[C@@H]2CO)[C@H](O)[C@@H](O)[C@H]1O (some centres unmarked) [200M lactose, lactose, reference compound]
[1]
  Apparent specific volume: 2.1 cm^3/g
[2]; binding solution 240, first liquid of Japanese Pharmacopoeia
  Drug dissolution rate after 5 min.: 60%
[3]; binding solution 180 g
  Tablet hardness at a compression pressure of 1000 kg/cm^2: 2.5 kgf
[3]; binding solution 220 g
  Tablet hardness at a compression pressure of 1000 kg/cm^2: 3.0 kgf
[3]; binding solution 240 g
  Tablet hardness at a compression pressure of 1000 kg/cm^2: 3.7 kgf
[4]
  Proportion of particles of 75 μm or more: 15%
[5]
  Angle of repose: 45 °
[6]; [13]
  Average particle size of granules: 91 μm
[6]; phenacetin granules, binding solution 220 g
  Average particle size of granules: 150 μm
[6]; [14]
  Average particle size of granules: 220 μm
[7]
  Whiteness: 95%
[8]
  Average particle size: 60 μm

## OC[C@@H](O)[C@@H](O)[C@H](O)[C@H](O)CO [Mannit P, reference compound]
[1]
  Apparent specific volume: 2.1 cm^3/g
[2]; binding solution 200, first liquid of Japanese Pharmacopoeia
  Drug dissolution rate after 5 min.: 70%
[3]; binding solution 180 g
  Tablet hardness at a compression pressure of 1000 kg/cm^2: 3.9 kgf
[3]; binding solution 200 g
  Tablet hardness at a compression pressure of 1000 kg/cm^2: 3.0 kgf
[3]; binding solution 240 g
  Tablet hardness at a compression pressure of 1000 kg/cm^2: 3.1 kgf
[4]
  Proportion of particles of 75 μm or more: 20%
[5]
  Angle of repose: 45 °
[6]; [13]
  Average particle size of granules: 106 μm
[6]; phenacetin granules, binding solution 200 g
  Average particle size of granules: 144 μm
[6]; [14]
  Average particle size of granules: 313 μm
[7]
  Whiteness: 96%
[8]
  Average particle size: 47 μm

## OC[C@H]1O[C@H](O[C@H]2O[C@H](CO)[C@@H](O)[C@H](O)[C@H]2O)[C@H](O)[C@@H](O)[C@@H]1O [Trehalose A, trehalose]
[9]; 1 g excipient + 1 g aminophyline, 0 day
  Whiteness: 100%
[9]; 1 g excipient + 1 g aminophyline, 40° C. and 75% RH, 1 month
  Whiteness: 98%
[9]; 1 g excipient + 1 g isoniazid, 0 day
  Whiteness: 98%
[9]; 1 g excipient + 1 g isoniazid, 40° C. and 75% RH, 1 month
  Whiteness: 97%
[1]; listed as A
  Apparent specific volume: 3.1 cm^3/g
[10]
  Consolidation during storage: consolidated during storage
[11]; Example 8: molded product of trehalose only, 30 kg/cm^2, listed as A
  Disintegration time according to Japanese Pharmacopoeia: 15 s
[11]; [15]
  Disintegration time according to Japanese Pharmacopoeia: 52 s
[11]; [16]
  Disintegration time according to Japanese Pharmacopoeia: 17 s
[11]; [17]
  Disintegration time according to Japanese Pharmacopoeia: 25 s
[11]; process of Example 9: 950 g excipient + 50 g phenylpropanolamine hydrochloride, 30 kg/cm^2, listed as A
  Disintegration time according to Japanese Pharmacopoeia: 16 s
[3]; Example 8: molded product of trehalose only, molded at 30 kg/cm^2, dried overnight at 40° C., listed as A
  Tablet hardness: 7.5 kg
[3]; [15]
  Tablet hardness: 10.2 kg
[3]; [16]
  Tablet hardness: 4.0 kgf
[3]; [17]
  Tablet hardness: 7.0 kgf
[3]; process of Example 9: 950 g excipient + 50 g phenylpropanolamine hydrochloride, molded at 30 kg/cm^2, listed as A
  Tablet hardness: 7.0 kg
[3]; tablets compressed at 500 kg/cm^2, 0 day (immediately after compression), listed as A
  Tablet hardness: 2.6 kgf
[3]; tablets compressed at 500 kg/cm^2, 3 days at 40° C. and 75% RH, listed as A
  Tablet hardness: 2.5 kgf
[12]; 0 day, listed as A
  Water content: 9.7%
[12]; 3 days at 40° C. and 75% RH
  Water content: 9.8%
[4]; listed as A
  Proportion of particles of 75 μm or more: 15%
[5]; listed as A
  Angle of repose: 48 °
[7]; listed as A
  Whiteness: 98%
[8]; listed as A
  Average particle size: 35 μm

## OC[C@H]1O[C@H](O[C@H]2O[C@H](CO)[C@@H](O)[C@H](O)[C@H]2O)[C@H](O)[C@@H](O)[C@@H]1O [Trehalose J, trehalose]
[1]
  Apparent specific volume: 2.0 cm^3/g
[2]; binding solution 120, first liquid of Japanese Pharmacopoeia
  Drug dissolution rate after 5 min.: 80%
[3]; binding solution 100 g
  Tablet hardness at a compression pressure of 1000 kg/cm^2: 5.1 kgf
[3]; binding solution 120 g, listed as J
  Tablet hardness at a compression pressure of 1000 kg/cm^2: 4.7 kgf
[3]; binding solution 160 g
  Tablet hardness at a compression pressure of 1000 kg/cm^2: 3.0 kgf
[4]
  Proportion of particles of 75 μm or more: 40%
[5]
  Angle of repose: 41 °
[6]; [18]
  Average particle size of granules: 110 μm
[6]; [19]
  Average particle size of granules: 130 μm
[6]; phenacetin granules, binding solution 120 g, listed as J
  Average particle size of granules: 130 μm
[6]; [20]
  Average particle size of granules: 270 μm
[7]
  Whiteness: 96%
[8]
  Average particle size: 60 μm

## OC[C@H]1O[C@H](O[C@H]2O[C@H](CO)[C@@H](O)[C@H](O)[C@H]2O)[C@H](O)[C@@H](O)[C@@H]1O [Trehalose K, trehalose]
[1]
  Apparent specific volume: 2.1 cm^3/g
[2]; binding solution 160, first liquid of Japanese Pharmacopoeia
  Drug dissolution rate after 5 min.: 80%
[3]; binding solution 100 g
  Tablet hardness at a compression pressure of 1000 kg/cm^2: 5.0 kgf
[3]; binding solution 120 g
  Tablet hardness at a compression pressure of 1000 kg/cm^2: 4.5 kgf
[3]; binding solution 160 g, listed as K
  Tablet hardness at a compression pressure of 1000 kg/cm^2: 2.9 kgf
[4]
  Proportion of particles of 75 μm or more: 21%
[5]
  Angle of repose: 42 °
[6]; [18]
  Average particle size of granules: 120 μm
[6]; [19]
  Average particle size of granules: 140 μm
[6]; [20]
  Average particle size of granules: 180 μm
[6]; phenacetin granules, binding solution 160 g, listed as K
  Average particle size of granules: 180 μm
[7]
  Whiteness: 97%
[8]
  Average particle size: 50 μm
